Structures can show the parent of a compound that is named as a salt.

For this assay, the target named is T1, recombinant guanylate cyclase reporter cell line (Rattus norvegicus, UniProt P19686+P20595).
T1 construct: expressed in transfected cells
T1 sequence (P20595 1-619): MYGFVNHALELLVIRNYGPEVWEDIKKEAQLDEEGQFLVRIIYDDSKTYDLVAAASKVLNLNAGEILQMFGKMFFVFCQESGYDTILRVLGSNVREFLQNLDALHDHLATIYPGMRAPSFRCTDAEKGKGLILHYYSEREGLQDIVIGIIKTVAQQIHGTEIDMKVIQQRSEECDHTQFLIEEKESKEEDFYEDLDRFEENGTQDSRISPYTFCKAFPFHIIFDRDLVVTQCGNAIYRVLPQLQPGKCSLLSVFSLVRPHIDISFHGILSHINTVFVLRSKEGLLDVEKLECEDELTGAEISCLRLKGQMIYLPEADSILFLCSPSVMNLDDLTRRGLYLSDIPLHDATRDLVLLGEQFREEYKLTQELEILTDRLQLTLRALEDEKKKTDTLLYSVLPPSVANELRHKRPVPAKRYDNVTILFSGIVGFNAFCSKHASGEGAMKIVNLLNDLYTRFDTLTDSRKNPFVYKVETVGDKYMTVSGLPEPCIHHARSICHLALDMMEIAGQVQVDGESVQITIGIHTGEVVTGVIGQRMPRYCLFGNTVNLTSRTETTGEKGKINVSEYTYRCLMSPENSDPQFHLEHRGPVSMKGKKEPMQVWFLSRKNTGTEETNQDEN
T1 sequence (P19686 1-690): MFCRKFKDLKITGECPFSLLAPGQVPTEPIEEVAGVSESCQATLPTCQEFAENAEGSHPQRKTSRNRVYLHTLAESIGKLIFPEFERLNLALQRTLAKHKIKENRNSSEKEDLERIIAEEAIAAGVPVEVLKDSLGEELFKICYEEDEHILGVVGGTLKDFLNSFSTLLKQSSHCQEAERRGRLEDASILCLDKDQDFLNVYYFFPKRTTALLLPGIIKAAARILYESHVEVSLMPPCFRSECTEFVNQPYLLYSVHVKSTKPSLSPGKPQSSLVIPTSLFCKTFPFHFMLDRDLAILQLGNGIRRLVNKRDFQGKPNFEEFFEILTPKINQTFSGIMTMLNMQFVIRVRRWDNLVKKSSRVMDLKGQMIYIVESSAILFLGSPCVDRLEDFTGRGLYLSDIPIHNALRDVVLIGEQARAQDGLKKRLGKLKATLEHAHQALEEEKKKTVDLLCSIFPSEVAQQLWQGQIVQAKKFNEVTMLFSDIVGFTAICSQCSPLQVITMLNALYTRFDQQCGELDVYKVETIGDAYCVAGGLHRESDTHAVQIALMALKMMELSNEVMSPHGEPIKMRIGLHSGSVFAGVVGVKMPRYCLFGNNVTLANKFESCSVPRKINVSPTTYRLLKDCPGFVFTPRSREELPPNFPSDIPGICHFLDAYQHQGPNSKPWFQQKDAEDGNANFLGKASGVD
The assay is described as follows: B-2. Action on recombinant guanylate cyclase reporter cell line. It is filed as cell-based. The conditions noted are these: MEC = minimal effective concentration; in some cases mean values from individual determinations. The procedure, abridged: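 Each compound is applied to a cell line engineered with a reporter for recombinant guanylate cyclase. The minimal effective concentration is then noted, in part as a mean across separate determinations.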
As to `Cc1nc2c(OCc3c(F)cccc3F)cccn2c1C(=O)NCCN1CCS(=O)(=O)CC1` [Example 131, 8-[(2,6-difluorobenzyl)oxy]-N-[2-(1,1-dioxidothiomorpholin-4-yl)ethyl]-2-methylimidazo[1,2-a]pyridine-3-carboxamide], the MEC came out at 3.00 µM.

As to `Cc1cc(OCc2c(F)cccc2F)c2nc(C)c(C(=O)NC(CN)c3cccc(C(F)(F)F)c3)n2c1` (racemic) [Example 394, rac-N-{2-amino-1-[3-(trifluoromethyl)phenyl]ethyl}-8-[(2,6-difluorobenzyl)oxy]-2,6-dimethylimidazo[1,2-a]pyridine-3-carboxamide], the MEC amounted to 0.30 µM.

With `COCC(C)(N)CNC(=O)c1c(C)nc2c(OCc3c(F)cccc3F)cccn12` (racemic) [Example 213, rac-N-(2-Amino-3-methoxy-2-methylpropyl)-8-[(2,6-difluorobenzyl)oxy]-2-methylimidazo[1,2-a]-pyridine-3-carboxamide], the MEC is 1.00 µM.

With `Cc1nc2c(OCc3c(F)cccc3F)cccn2c1C(=O)NC1CNCc2ccccc21` (single isomer, unassigned; ent-8) [Example 110, ent-8-[(2,6-difluorobenzyl)oxy]-2-methyl-N-(1,2,3,4-tetrahydroisoquinolin-4-yl)imidazo[1,2-a]pyridine-3-carboxamide], the MEC was found to be 0.30 µM.

Take `Cc1nc2c(OCc3c(F)cccc3F)cccn2c1C(=O)NC1CCNc2ccc(C(F)(F)F)cc21` (single isomer, unassigned; ent-8) [Example 111, ent-8-[(2,6-difluorobenzyl)oxy]-2-methyl-N-[6-(trifluoromethyl)-1,2,3,4-tetrahydroquinolin-4-yl]imidazo[1,2-a]pyridine-3-carboxamide]: the MEC was found to be 1.00 µM.

For the compound `Cc1nc2c(OCc3c(F)cccc3F)cccn2c1C(=O)NC(C)[C@@H](C)N` (stereo partly drawn) [Example 121, N-[(3R)-3-Aminobutan-2-yl]-8-[(2,6-difluorobenzyl)oxy]-2-methylimidazo[1,2-a]pyridine-3-carboxamide], the MEC worked out at 0.30 µM.

In the case of `Cc1cc(OCc2c(F)cccc2F)c2nc(C)c(C(=O)NCC(N)c3cccc(OC(F)(F)F)c3)n2c1` (racemic) [Example 377, rac-N-{2-amino-2-[3-(trifluoromethoxy)phenyl]ethyl}-8-[(2,6-difluorobenzyl)oxy]-2,6-dimethylimidazo[1,2-a]pyridine-3-carboxamide], the MEC is 3.00 µM.

In the case of `Cc1cc(OCc2c(F)cccc2F)c2nc(C)c(C(=O)NC3CCNC(C(F)(F)F)C3)n2c1` (racemic) [Example 302, rac-8-[(2,6-difluorobenzyl)oxy]-2,6-dimethyl-N-[2-(trifluoromethyl)piperidin-4-yl]imidazo[1,2-a]pyridine-3-carboxamide], the MEC stood at 0.10 µM.

For `Cc1nc2c(OCc3c(F)cccc3F)cc(Cl)cn2c1C(=O)NCCC1(N)CCCCC1` [Example 33, N-[2-(1-Aminocyclohexyl)ethyl]-6-chloro-8-[(2,6-difluorobenzyl)oxy]-2-methylimidazo[1,2-a]-pyridine-3-carboxamide], the MEC is 0.30 µM.

Turning to `Cc1nc2c(OCc3c(F)cccc3F)cccn2c1C(=O)NCC(C(C)C)N(C)C` (single isomer, unassigned; ent-8) [Example 189, ent-8-[(2,6-Difluorobenzyl)oxy]-N-[2-(dimethylamino)-3-methylbutyl]-2-methylimidazo[1,2-a]-pyridine-3-carboxamide], the MEC was 3.00 µM.

Regarding `Cc1nc2c(OCc3c(F)ccc(F)c3F)cccn2c1C(=O)NC(CN)c1ccc(F)c(F)c1` (stereo not drawn) [Example 100, ent-N-[2-amino-1-(3,4-difluorophenyl)ethyl]-2-methyl-8-[(2,3,6-trifluorobenzyl)oxy] imidazo[1,2-a]pyridine-3-carboxamide], the MEC was 0.30 µM.

Consider `Cc1nc2c(OCc3c(F)cccc3F)cccn2c1C(=O)NCCN(CC(F)F)C1CC1` [Example 146, N-{2-[cyclopropyl(2,2-difluoroethyl)amino]ethyl}-8-[(2,6-difluorobenzyl)oxy]-2-methylimidazo[1,2-a]-pyridine-3-carboxamide], for which the MEC is 1.00 µM.

Consider `Cc1nc2c(OCc3c(F)cccc3F)cccn2c1C(=O)NCCNC(C)C` [Example 130, 8-[(2,6-difluorobenzyl)oxy]-N-[2-(isopropylamino)ethyl]-2-methylimidazo[1,2-a]-pyridine-3-carboxamide], for which the MEC was found to be 1.00 µM.

`CCC(C)(N)CNC(=O)c1c(C)nc2c(OCc3c(F)cccc3F)cc(Cl)cn12` (single isomer, unassigned) [Example 194, ent-N-(2-Amino-2-methylbutyl)-6-chloro-8-[(2,6-difluorobenzyl)oxy]-2-methylimidazo[1,2-a]-pyridine-3-carboxamide]: the MEC is 0.10 µM.

Regarding `Cc1cc(OCc2c(F)cccc2F)c2nc(C)c(C(=O)NCC(C)(N)Cc3ncn(-c4cc(C)on4)n3)n2c1` (racemic) [Example 321, rac-N-{2-amino-2-methyl-3-[1-(5-methyl-1,2-oxazol-3-yl)-1H-1,2,4-triazol-3-yl]propyl}-8-[(2,6-difluorobenzyl)oxy]-2,6-dimethylimidazo[1,2-a]pyridine-3-carboxamide], the MEC came to 0.30 µM.

In the case of `Cc1cc(OCc2c(F)cccc2F)c2nc(C)c(C(=O)NCC(N)C#N)n2c1` (single isomer, unassigned; enantiomer b) [Example 402, ent-N-(2-amino-2-cyanoethyl)-8-[(2,6-difluorobenzyl)oxy]-2,6-dimethylimidazo[1,2-a]pyridine-3-carboxamide (Enantiomer B)], the MEC is 0.30 µM.

In the case of `CCC(C)(N)CNC(=O)c1c(C)nc2c(OCc3c(F)cccc3F)cccn12` (racemic) [Example 254, rac-N-(2-Amino-2-methylbutyl)-8-[(2,6-difluorobenzyl)oxy]-2-methylimidazo[1,2-a]pyridine-3-carboxamide], the MEC turned out to be 0.30 µM.

As to `Cc1cc(OCc2c(F)cccc2F)c2nc(C)c(C(=O)NCC(C)(N)C3CC3)n2c1` (racemic) [Example 259, rac-N-(2-Amino-2-cyclopropylpropyl)-8-[(2,6-difluorobenzyl)oxy]-2,6-dimethylimidazo[1,2-a]-pyridine-3-carboxamide], the MEC is 0.03 µM.

On to `Cc1nc2c(OCc3c(F)cccc3F)cccn2c1C(=O)NC(CN)c1ccc(F)cc1F` (stereo not drawn) [Example 21, ent-N-[2-Amino-1-(2,4-difluorophenyl)ethyl]-8-[(2,6-difluorobenzyl)oxy]-2-methylimidazo[1,2-a]-pyridine-3-carboxamide], for which the MEC was found to be 0.30 µM.

Take `Cc1cc(OCc2c(F)cccc2F)c2nc(C)c(C(=O)NC3CC(C)(C)C3N)n2c1` (mixture of isomers) [Example 358, N-(2-amino-3,3-dimethylcyclobutyl)-8-[(2,6-difluorobenzyl)oxy]-2,6-dimethylimidazo[1,2-a]pyridine-3-carboxamide Formate (Isomer Mixture)]: the MEC came out at 0.30 µM.

`Cc1cc(OCc2c(F)cccc2F)c2nc(C)c(C(=O)NCC(N)C(C)C)n2c1` (single isomer, unassigned) [Example 223, ent-N-(2-Amino-3-methylbutyl)-8-[(2,6-difluorobenzyl)oxy]-2,6-dimethylimidazo[1,2-a]pyridine-3-carboxamide]: the MEC was 0.30 µM.

In the case of `Cc1cc(OCc2c(F)cccc2F)c2nc(C)c(C(=O)NC3CCC3(C)N)n2c1` (single isomer, unassigned; enantiomer a) [Example 332, ent-N-[2-amino-2-methylcyclobutyl]-8-[(2,6-difluorobenzyl)oxy]-2,6-dimethylimidazo[1,2-a]pyridine-3-carboxamide (Enantiomer A)], the MEC came out at 1.00 µM.

With `Cc1nc2c(OCc3c(F)cccc3F)cccn2c1C(=O)NC1CNc2ccccc21` (single isomer, unassigned; ent-8) [Example 47, ent-8-[(2,6-Difluorobenzyl)oxy]-N-(2,3-dihydro-1H-indol-3-yl)-2-methylimidazo[1,2-a]pyridine-3-carboxamide], the MEC amounted to 0.30 µM.

Values taken from US9624214B2, “Amino-substituted imidazo[1,2-a]pyridinecarboxamides and their use” (BAYER PHARMA AKTIENGESELLSCHAFT, priority 2012, dated 2017).
